We go through 4 molecules from patent US20130236553A1, “Compositions and Methods for the Delivery of Therapeutics” (Board of Regents of the University of Nebraska, priority 2010, published 2013).

For data set [1] the following is noted: cited from earlier work.
For data set [2] the following is noted: cited from earlier work. This is another data set of the same source.
A short description of data set [3]: Plasma concentration after low dose SC injection of nanoparticle or free drug. The note with it: 10 mg/kg SC; for concentration at 0.25 hr / concentration at 1 hr / concentration at 3 hr / concentration at 6 hr / concentration at 10 hr / concentration at 24 hr / concentration at 48 hr / concentration at 96 hr / concentration at 168 hr / concentration at 336 hr: mouse, plasma, subcutaneous. Format: in vivo, Mice. The procedure: Mice were also administered nanoparticles or free drug at only 10 mg/kg by SC injection.

Data set [4] deals with a variety of HIV strains and host cell types. As to conditions: read-out: EC50 levels for anti-HIV activity; cited from earlier work.
In data set [5] the test system is HIVADA. The data set is described as follows: Antiretroviral activities of RTV (p24 staining, RT activity) in HIVADA infected MDM. Format: cell-based, HIV-1. As to conditions: 12 hours treatment, HIV challenge day 1, read 10 days after infection. Here is the method:
Drug-treated MDMs were infected with HIVADA at a multiplicity of infection of 0.01 infectious viral particles/cell (Gendelman et al. (1988) J. Exp. Med., 167:1428-1441) on day 1 after RTV-NP treatment. Following viral infection, cells were cultured for 10 days with half media exchanges every other day. Media samples were collected 10 days after infection for measurement of progeny virion production as assayed by reverse transcriptase (RT) activity (Kalter et al. (1991) J. Immunol., 146:3396-3404). Parallel analyses for expression of HIV p24 antigen in infected cells were performed by immunostaining using p24 mouse monoclonal Ab (Dako [CA, USA]) on the same day as media sampling.
In a 96-well plate, media samples (10 μl) were mixed with 10 μl of a solution containing 100 mM Tris-HCl (pH 7.9), 300 mM KCl, 10 mM dithiothreitol, 0.1% nonyl phenoxylpolyethoxylethanol-40 (NP-40) and water. […] Following incubation, 50 μl of cold 10% TCA was added to each well; the wells were harvested onto glass fiber filters, and the filters were assessed for tritiated thymidine triphosphate incorporation by β-scintillation spectroscopy using a TopCount NX™ (PerkinElmer Inc. [MA, USA]) (Kalter et al. (1991) J. Immunol., 146:3396-3404). […]

What is called EC50 is the concentration at which the effect is half-maximal.

Turning to `COC(=O)N[C@H](C(=O)N[C@@H](Cc1ccccc1)[C@@H](O)CN(Cc1ccc(-c2ccccn2)cc1)NC(=O)[C@@H](NC(=O)OC)C(C)(C)C)C(C)(C)C` [ATV, atazanavir], in data set [1], the “solubility of free-base drug” value was 4000 to 5000 µg/mL. For the same molecule, the “therapeutic human plasma levels” value in data set [2] was 0.3 to 2.2 µg/mL. For the same molecule, the “minimum human therapeutic serum level” value in data set [2] (human serum) is 150 ng/mL. Moreover, in data set [3], the concentration at 0.25 hr stood at 1150 ng/mL, the concentration at 1 hr stood at 804 ng/mL, the concentration at 3 hr was determined as 2060 ng/mL and the concentration at 6 hr amounted to 2100 ng/mL. In data set [3], this molecule had a concentration at 10 hr of 639 ng/mL, a concentration at 24 hr of 9.85 ng/mL, a concentration at 48 hr of 4.38 ng/mL and a concentration at 96 hr of 4.3 ng/mL. This molecule registered a concentration at 168 hr in data set [3] of 1.74 ng/mL. In data set [3] (336 hr), this molecule showed a concentration at 336 hr of 0 ng/mL. The 50% effective concentration (EC50) in data set [4] is 2 to 5 nM.
For the molecule `O=C1Nc2ccc(Cl)cc2[C@@](C#CC2CC2)(C(F)(F)F)O1` [EFV, efavirenz], the “solubility of free-base drug” value in data set [1] is 9 µg/mL. Besides, the “therapeutic human plasma levels” value in data set [2] is 1.8 to 4.1 µg/mL. The “Plasma concentration, 336 hr” value in data set [3] (336 hr) was “<LLOQ”. In data set [3], this molecule displayed a concentration at 0.25 hr of 301 ng/mL, a concentration at 1 hr of 124 ng/mL, a concentration at 3 hr of 155 ng/mL and a concentration at 6 hr of 213 ng/mL. In data set [3], the concentration at 10 hr was found to be 40 ng/mL, the concentration at 24 hr turned out to be 7.1 ng/mL, the concentration at 48 hr worked out at 2.17 ng/mL and the concentration at 96 hr was determined as 2.99 ng/mL. In data set [3], this molecule registered a concentration at 168 hr of 2.57 ng/mL. In addition, in data set [4], the EC50 is 1.7 to 25 nM.
For the molecule `CC(C)(C)NC(=O)[C@@H]1CN(Cc2cccnc2)CCN1C[C@@H](O)C[C@@H](Cc1ccccc1)C(=O)N[C@H]1c2ccccc2C[C@H]1O` [IDV, indinavir], in data set [4], the concentration for a half-maximal effect (EC50) was 5 to 29 nM.
Take `CC(C)c1nc(CN(C)C(=O)N[C@H](C(=O)N[C@@H](Cc2ccccc2)C[C@H](O)[C@H](Cc2ccccc2)NC(=O)OCc2cncs2)C(C)C)cs1` [RTV, ritonavir]: in data set [5], the “protection against HIV infection (p24 staining, multinucleated giant cells)” value is recorded as “no protection against infection”. Further, in data set [2], the “therapeutic human plasma levels” value was 3.5 to 9.6 µg/mL. Moreover, in data set [3], the concentration at 0.25 hr stood at 1080 ng/mL, the concentration at 1 hr was found to be 492 ng/mL, the concentration at 3 hr amounted to 710 ng/mL and the concentration at 6 hr was 551 ng/mL. Moreover, in data set [3], the concentration at 10 hr came out at 69.1 ng/mL, the concentration at 24 hr came to 5.91 ng/mL, the concentration at 48 hr stood at 2.36 ng/mL and the concentration at 96 hr stood at 4.94 ng/mL. The molecule also registered a concentration at 168 hr in data set [3] of 2.21 ng/mL. Further, the concentration at 336 hr in data set [3] (336 hr) turned out to be 0 ng/mL. For the same molecule, the concentration for a half-maximal effect (EC50) in data set [4] was 35 to 200 nM.
